Measured values reported in PMC4801399, “Impact of a CXCL12/CXCR4 Antagonist in Bleomycin (BLM) Induced Pulmonary Fibrosis and Carbon Tetrachloride (CCl4) Induced Hepatic Fibrosis in Mice” (PLoS ONE, 2016).
Read-outs that look alike come from different tables or passages of the source.

Legend:
[1] = test system: leukocyte mobilization (blood cell counts); experiment: Hematology measurements after PO administration (leukocyte mobilization); format: in vivo, CD-1 mice
Procedure: At each endpoint, mice were euthanized with CO2 and blood collected via cardiac puncture. An aliquot was set aside at room temperature for hematology measurements with remaining blood processed for plasma for drug concentration determination. Lungs were collected and immediately frozen on dry ice and stored at -70°C until determination of drug concentration.

[2] = test system: BLM-induced pulmonary fibrosis; experiment: BLM-induced murine model of pulmonary fibrosis; format: in vivo, CD-1 mice
Procedure: PF was induced in six-weeks old female CD-1 mice purchased from Harlan. Animals were randomly divided into three groups (n = 10/group): PBS plus acetate buffer control, BLM plus acetate buffer and BLM plus AMD070.
On day 0, mice were anaesthetized with isoflurane and PF was induced by BLM administration. Specifically, BLM (C103610, Fresenius Kabi Canada, 2U/kg) in 40 μL PBS or vehicle control (PBS) was administrated by non-surgical endotracheal instillation with sterile disposable plastic loading pipette tips. The next day, AMD070 (Shanghai Haoyuan Chemexpress Co., 400 μg/mouse in 200 μL 30 mM acetate buffer) or 200 μL of 30 mM acetate buffer (pH 5) was administrated via oral gavage (PO) with a 20G feeding needle. AMD070 or acetate buffer vehicle was administrated daily for 21 consecutive days. Animals were euthanized with avertin overdose on day 22.
Following perfusion with PBS, lungs were fixed in 4% paraformaldehyde at 4°C for 2 days. These were embedded in paraffin, sectioned at 1 mm apart and stained with hematoxylin-eosin (H&E) and Masson’s Trichrome stains. For quantitation of percent PF, entire lung and fibrotic areas were outlined. Percent fibrotic area was calculated by dividing fibrotic area (mm^2) by total lung area (mm^2) and multiplying by 100. For H&E stained slides, two histology slides/animal were selected from the central region of the lungs and analyzed whereas only one histology slide/animal was analyzed with Masson’s Trichrome stained slides. These analyses were performed with Image J and the analyst was blinded to sample identification.

[3] = AMD070 PK study via IP injection: plasma, lung and liver concentration; format: in vivo, C57BL/6 mice; conditions: IP 400 μg/mouse; for concentration at 6 h: six hours post administration; for Kp: C57BL/6, read-out: Tissue AUC/Plasma AUC
Procedure: At each endpoint, animals were euthanized with CO2 and blood collected via cardiac puncture. An aliquot was set aside at room temperature for hematology measurements with remaining blood processed for plasma for drug concentration determination. Lungs and livers were also collected and immediately frozen on dry ice and stored at -70°C until determination of drug concentration. AMD070 concentrations in mouse plasma were determined using protein precipitation extraction followed by UPLC-MS/MS analysis. Briefly, 100 μL aliquots of plasma were transferred to individual wells of an Isolute PPT+ (Biotage) array plate containing 300 μL of 0.1% formic acid (FA) in acetonitrile (ACN). […] The sample residue was then reconstituted into 200 μL of 0.1/5/95 FA/ACN/H2O (v/v/v) and analyzed using reverse phase chromatography (gradient elution) combined with multiple reaction monitoring acquisition (MRM). The mobile phases consisted of 0.1% FA in H2O and 0.1% FA in ACN. AMD070 was extracted from lung and liver tissue by homogenization under basic conditions followed by liquid-liquid extraction in tert-butyl methyl ether (TBME) and ethyl acetate respectively. In summary, 50 mg of lung or liver tissue pieces were cut, weighed, and transferred to homogenization tubes. 25 μL of deionized water for lung and 10 μL for liver were added to each tube, followed by the addition of zirconium (Zr) homogenization beads. The samples were homogenized for approximately 20 seconds in the BeadBeater, followed by 1 minute of centrifugation at room temperature at 13,520 rcf. 200 μL of 1 N NaOH was then transferred to each tube, followed by a second homogenization/centrifugation cycle as described above. […] The dried residue was reconstituted into 0.1/5/95 TFA/ACN/H2O and analyzed using reverse phase chromatography (gradient elution) combined with MRM acquisition in positive electrospray mode (ES+). The mobile phases consisted of 0.1% TFA in H2O and 0.1% TFA in ACN.

[4] = test system: leukocyte mobilization (blood cell counts); experiment: Hematology measurements after IP administration (leukocyte mobilization); format: in vivo, C57BL/6 mice; conditions: IP 400 μg/mouse
Procedure: At each endpoint, animals were euthanized with CO2 and blood collected via cardiac puncture. An aliquot was set aside at room temperature for hematology measurements with remaining blood processed for plasma for drug concentration determination. Lungs and livers were also collected and immediately frozen on dry ice and stored at -70°C until determination of drug concentration.

[5] = test system: mobilization of bone marrow hematopoietic progenitors; parameters: method as in PMID 17452489; conditions: human subjects; cited from earlier work
[6] = BLM plus AMD070 400 μg/mouse PO daily 21 days, day 22, mean, n = 9

SMILES: NCCCCN(Cc1nc2ccccc2[nH]1)[C@H]1CCCc2cccnc21 [AMD070]
- Tmax of WBC increase ([1]; PO 200 μg/mouse): 180 min
- WBC counts ([1]; PO 200 μg/mouse): significant, transient increase
- WBC counts ([1]; PO 400 μg/mouse): increased and remained elevated for the full 24 hours
- eosinophils (WBC differential) ([1]; PO 200 or 400 μg/mouse): no increases
- lymphocytes (WBC differential) ([1]; PO 200 or 400 μg/mouse): increased
- monocytes (WBC differential) ([1]; PO 200 or 400 μg/mouse): no increases
- neutrophils (WBC differential) ([1]; PO 200 or 400 μg/mouse): no increases
- platelet counts ([1]; PO 200 or 400 μg/mouse): did not change
- red blood cell (RBC) counts ([1]; PO 200 or 400 μg/mouse): did not change
- lung fibrosis, Masson's Trichrome [2, 6]: 10.5%
- lung inflammation, H & E stained lungs (percent surface area) [2, 6]: 14.2%
- survival over the duration of the study ([2]; BLM plus AMD070 400 μg/mouse PO daily, 22 days, BLM plus acetate buffer 40%): 90%
- Cmax ([3]; C57BL/6, 400 ug, Liver): 14300 ng/g
- Tmax ([3]; C57BL/6, 400 ug, Liver): 30 min
- Cmax ([3]; C57BL/6, 400 ug, Lung): 6140 ng/g
- Tmax ([3]; C57BL/6, 400 ug, Lung): 30 min
- Cmax ([3]; C57BL/6, 400 ug, Plasma): 770 ng/mL
- Tmax ([3]; C57BL/6, 400 ug, Plasma): 30 min
- AUC ([3]; C57BL/6, 400 ug, Plasma, read-out: AUC (all time points)): 1240 ng·h/mL
- concentration at 6 h ([3]; C57BL/6, liver, read-out: liver concentration): 6470 ng/g
- concentration at 6 h ([3]; C57BL/6, lung, read-out: lung concentration): 3740 ng/g
- concentration at 6 h ([3]; C57BL/6, plasma, read-out: plasma concentration): 45 ng/mL
- Kp ([3]; Liver): 90.7
- Kp ([3]; Lung): 61.2
- liver concentration (peak) ([3]; 30 minutes post administration): 14.3 µg/g
- lung concentration (peak) ([3]; 30 minutes post administration): 6.14 µg/g
- plasma concentration (peak) ([3]; 30 minutes post administration): 770 ng/mL
- RBC levels [4]: unaffected
- Tmax of WBC increase [4]: 180 min
- WBC counts [4]: significant but transient increase
- lymphocytes (WBC differential) [4]: increased
- neutrophils (WBC differential) [4]: increased
- platelet levels [4]: unaffected
- time of peak mobilization of bone marrow hematopoietic progenitors post dosing [5]: two to three
